In ChEMBL document CHEMBL5725500, “Substituted spiropiperidinyl compounds useful as GPR120 agonists” (2017) one finds EC50 data, which are given here for 7 compounds.

The structures appear in SMILES notation.

The assay concerns the target T1, Free fatty acid receptor 4 (Homo sapiens, UniProt Q5NUL3).
T1 sequence (Q5NUL3 whole entry): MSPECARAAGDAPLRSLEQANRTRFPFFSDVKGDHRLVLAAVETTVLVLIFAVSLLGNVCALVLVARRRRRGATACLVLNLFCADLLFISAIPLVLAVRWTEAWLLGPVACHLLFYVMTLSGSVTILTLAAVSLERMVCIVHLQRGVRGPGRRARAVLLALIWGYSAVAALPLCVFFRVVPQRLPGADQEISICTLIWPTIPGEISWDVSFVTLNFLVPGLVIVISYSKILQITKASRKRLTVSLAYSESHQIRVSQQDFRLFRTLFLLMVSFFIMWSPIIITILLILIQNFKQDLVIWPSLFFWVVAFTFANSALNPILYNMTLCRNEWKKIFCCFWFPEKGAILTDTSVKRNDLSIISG
The assay is described as follows: FLIPR Assay: On the day before the measurement day, CHO cells expressing human GPR120 were plated at 10000 cells per well in a 384-well black plate (#3702, Corning) and incubated overnight in a CO2 incubator. On the day of the measurement, 4 μM Fluo-4 AM (fluorescence calcium indicator reagent) was incubated to be introduced into the human GPR120 expression CHO cells in the presence of 0.08% Pluronic F-127 in a CO2 incubator for 90 minutes. To the cells was added the test compound diluted with HBSS solution containing 20 mM HEPES and 2.5 mM probenecid. Variations in the intracellular calcium concentration were measured by Fluorescence Imaging Plate Reader (FLIPR; Molecular Devices) to examine the agonist action, and EC50 values were calculated. It is filed as cell-based.
Turning to `OCCC1CCC2(CC1)CCN(c1cc(OC(F)(F)F)ccc1Cl)CC2`, the 50% effective concentration (EC50) (as a rule, the concentration at which the effect is half-maximal) was 0.472 µM.
On to `Cc1cccc(Oc2ccc(C#N)c(N3CCC4(CCC(CC(=O)O)CC4)CC3)c2)n1`, for which the EC50 was 4.22 µM.
Next, `O=C(O)C[C@@H]1CCC2(CCN(c3cc(OC4CCC4)ccc3F)CC2)OC1`: 3.24 µM; `O=C(O)CC1CCC2(CCN(c3cc(OC(F)(F)F)ccc3F)CC2)OC1` (configuration not stated): 1.21 µM.
With `O=C(O)C[C@H]1CCC2(CCN(c3cc(OC4CCC4)ccc3Cl)CC2)OC1` the figure was 1.65 µM.
With `COc1cc(F)cc(N2CCC3(CC2)CC(CC(=O)O)CO3)c1` (configuration not stated), the concentration giving a half-maximal response (EC50) was 2.38 µM.
With `Cc1ccnc(Oc2ccc(C#N)c(N3CCC4(CCC(CC(=O)O)CC4)CC3)c2)c1` the figure was 4.97 µM.
